According to patent US20180371256A1, “BENZOCOUMARIN-BASED TWO-PHOTON ABSORBING FLUORESCENT DYE” (POSTECH ACADEMY-INDUSTRY FOUNDATION, priority 2017, published 2018):
Entries after “also recorded” stand apart in the source; their conditions may differ.

Legend:
[1] = tested on: mouse kidney tissue; assay: Two-photon fluorescence microscopy imaging of mouse kidney tissue slices treated with dye; set-up: species or system mouse (Balb/C); details: 10 μM
Protocol: The inventors observed fluorescent changes by two-photon microscopy after mouse tissue was treated with Compound 1g of the present invention, and the result is shown in FIG. 3.
Specifically, to observe a two-photon microscopy image of mouse tissue treated with Compound 1g, kidney tissue of a Balb/C type mouse (6 weeks old) was used, and an experiment was carried out under a light-protected condition (dark room). The mouse kidney tissue was dissected and washed with a PBS buffer solution, and then each organ was frozen over dry-ice for 5 minutes. The frozen organs were crushed with a hammer, and then a tissue slice sample was prepared to a thickness of 16 μm using a cutter (Cryostat machine, Leica, CM3000 model). […] The tissue slice sample was put on a specimen block (Paul Marienfeld GMbH & Co.), and the specimen block was immersed in 4% paraformaldehyde for 10 minutes and washed with a PBS buffer solution, and then the tissue was fixed again using a mount solution (Gel Mount, BIOMEDA). The prepared tissue slice sample was immersed in a PBS buffer solution containing Compound 1g and acedan or IminoPOS at a concentration of 10 μM for 10 minutes, washed with a PBS buffer solution three times, and then fixed with 4% paraformaldehyde, followed by observation of fluorescence. […]

[2] = UV/Vis absorbance spectra of benzocoumarin-based fluorescent dyes (wavelength of maximum absorbance); format: physicochemical; details: 10 μM dye in HEPES buffer, PBS buffer, dioxane, ethanol, acetonitrile, dichloromethane, dimethylsulfoxide or toluene (1% DMSO); compared with Compounds 1c and 1g to 1l (FIG. 1)
From the text: (§1) The inventors confirmed absorption characteristics of representative compounds among Compounds 1g to 1k, which are two-photon absorbing near-infrared fluorescent dyes, and Compounds 1a to 1f and 1l to 4g, which are two-photon absorbing fluorescent dyes, of the present invention, and the results are shown in FIG. 1.
Specifically, to confirm the characteristics of UV/Vis absorbance spectra of benzocoumarin-based near-infrared fluorescent dyes and derivatives thereof, the inventors measured UV/Vis absorbance spectra (measured using a HP8453 UV/Vis absorbance spectrophotometer) by charging a quartz cell with a 1-cm path length with 4-(2-hydroxyethyl)-1-piperazineethanesulfonic acid (HEPES) buffer, phosphate-buffered saline (PBS) buffer, dioxane, ethanol, acetonitrile, dichloromethane, dimethylsulfoxide, or a toluene solution (containing 1% DMSO), which contains 10 μM each of Compounds 1a to 4g, and the wavelength of maximum absorbance is shown in FIG. 1.

[3] = Fluorescence spectra of benzocoumarin-based fluorescent dyes; format: physicochemical; details: 10 μM dye in HEPES buffer, dioxane, ethanol, acetonitrile, dichloromethane, dimethylsulfoxide or toluene (1% DMSO); compared with Compounds 1c and 1g to 1l (FIG. 2)
From the text: as §1, with “2.” for “1.”
Specifically, to confirm the characteristics of fluorescent spectra of two-photon absorbing near-infrared fluorescent dyes, the inventors measured fluorescence spectra (measured using a photon technical international fluorescence system) by charging a quartz cell with a 1-cm path length with 4-(2-hydroxyethyl)-1-piperazineethanesulfonic acid (HEPES) buffer, […], dioxane, ethanol, acetonitrile, dichloromethane, dimethylsulfoxide, a toluene solution (containing 1% DMSO), which contains 10 μM each of Compounds 1a to 4g, and the wavelength of maximum absorbance is shown in FIG. 2.

wavelengths of maximum absorbance [2] | wavelengths of maximum absorbance (fluorescence spectra, FIG. 2) [3] | SMILES | quality of two-photon fluorescence image ([1]; depths 25, 125, 175 μm, compared to acedan or IminoPOS (conventional two-photon dyes), FIG. 3c) | signal/noise (S/N) ratio of two-photon tissue image ([1]; two-photon excitation 900 nm, surface layer to middle depth (50 to 150 μm), compared to acedan (800 nm) and IminoPOS (850 nm), FIG. 3b)
– | – | C[n+]1ccc(-c2cc3cc4ccc(N5CCCC5)cc4cc3oc2=O)cc1.[OH-] [Compound 1g, 1-methyl-4-(2-oxo-8-(pyrrolidine-1-yl)-2H-benzo[g]chromene-3-yl)pyridinium trifluoromethanesulfonate] | superior fluorescence image; also recorded: high-definition and high-contrast image | increased
did not have a significant difference | did not have a significant difference | Nc1ccc2cc3cc(-c4ccncc4)c(=O)oc3cc2c1 [Compound 1f, 8-amino-3-(pyridine-4-yl)-2H-benzo[g]chromene-2-one] | – | –
did not have a significant difference | did not have a significant difference | CNc1ccc2cc3cc(-c4ccncc4)c(=O)oc3cc2c1 [Compound 1d, 8-(methylamino)-3-(pyridine-4-yl)-2H-benzo[g]chromene-2-one] | – | –
did not have a significant difference | did not have a significant difference | O=c1oc2cc3cc(N4CCCC4)ccc3cc2cc1-c1ccncc1 [Compound 1a, 3-(pyridine-4-yl)-8-(pyrrolidine-1-yl)-2H-benzo[g]chromene-2-one] | – | –
did not have a significant difference | did not have a significant difference | CN(C)c1ccc2cc3cc(-c4ccncc4)c(=O)oc3cc2c1 [Compound 1b, 8-(dimethylamino)-3-(pyridine-4-yl)-2H-benzo[g]chromene-2-one] | – | –
did not have a significant difference | did not have a significant difference | C=CCNc1ccc2cc3cc(-c4ccncc4)c(=O)oc3cc2c1 [Compound 1e, 8-(allylamino)-3-(pyridine-4-yl)-2H-benzo[g]chromene-2-one] | – | –
